Reference: US11066414B2, “Cot modulators and methods of use thereof” (Gilead Sciences, Inc., priority 2015, dated 2021)
Read-outs that look alike come from different tables or passages of the source.

How the values were obtained:
[1] = tested on: TNFα; experiment: Cot Monocyte TNFα Cell Based Assay
[2] = biological target: Human Cot (Homo sapiens (Human), UniProt P41279); experiment: High Throughput Cot Biochemical Assay; conditions: Cot HTRF (TR-FRET) biochemical assay
[3] = Homo sapiens, Monocyte, read-out: EC50 TNF, LPS-stimulated human monocytes, TNFα

Human Cot, sequence (P41279 30-397): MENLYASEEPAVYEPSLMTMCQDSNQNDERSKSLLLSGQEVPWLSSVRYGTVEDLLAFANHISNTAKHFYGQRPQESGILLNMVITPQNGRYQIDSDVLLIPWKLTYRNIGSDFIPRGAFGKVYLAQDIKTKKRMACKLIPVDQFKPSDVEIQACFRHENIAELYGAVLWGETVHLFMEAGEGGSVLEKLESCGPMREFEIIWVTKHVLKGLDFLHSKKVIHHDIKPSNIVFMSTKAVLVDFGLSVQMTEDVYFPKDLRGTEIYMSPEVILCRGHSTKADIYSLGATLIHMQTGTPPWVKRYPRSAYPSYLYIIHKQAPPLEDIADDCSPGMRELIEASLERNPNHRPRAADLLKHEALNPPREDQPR

| Structure (SMILES) | EC50 [1, 3] [nM] | IC50 ([2]; IC50 HTRF) [nM] | EC50 ([1]; read-out: EC50 TNF, LPS-stimulated human monocytes, TNFα) [nM] | IC50 ([2]; read-out: IC50 HTRF) [nM] |
| --- | --- | --- | --- | --- |
| CC(C)(C)CNc1c(C#N)cnc2c(Cl)cc(N[C@H](c3cn(C4(C(F)F)CC4)nn3)c3cccc4ncsc34)cc12 [Example 421, (S)-6-((benzo[d]thiazol-7-yl(1-(1-(difluoromethyl)cyclopropyl)-1H-1,2,3-triazol-4-yl)methyl)amino)-8-chloro-4-(neopentylamino)quinoline-3-carbonitrile] | 100 | 4 | – | – |
| CC(C)(C)CNc1c(C#N)cnc2c(Cl)cc(N[C@H](c3cn(C4CC4)nn3)c3cccn4nccc34)cc12 [Example 422, (S)-8-chloro-6-(((1-cyclopropyl-1H-1,2,3-triazol-4-yl)(pyrazolo[1,5-a]pyridin-4-yl)methyl)amino)-4-(neopentylamino)-quinoline-3-carbonitrile] | 57 | 2 | – | – |
| [2H][C@](Nc1cc(Cl)c2ncc(C#N)c(NCC(C)(C)C)c2c1)(c1ccc(F)nc1)c1cn(CC(=O)NS(C)(=O)=O)nn1 [Example 425, (S)-2-(4-(((8-chloro-3-cyano-4-(neopentylamino)quinolin-6-yl)amino)(6-fluoropyridin-3-yl)methyl-d)-1H-1,2,3-triazol-1-yl)-N-(methyl-sulfonyl)acetamide] | 1000 | 7 | – | – |
| Cc1nc2cccc([C@H](Nc3cc(C#N)c4ncc(C#N)c(NCC(C)(C)C)c4c3)c3cn(C4CC4)nn3)c2s1 [Example 427, (S)-6-(((1-cyclopropyl-1H-1,2,3-triazol-4-yl)(2-methylbenzo[d]thiazol-7-yl)methyl)amino)-4-(neopentylamino)-quinoline-3,8-dicarbonitrile] | 41 | 2 | – | – |
| Cc1nc(F)ccc1[C@H](Nc1cc(Cl)c2ncc(C#N)c(NCC(C)(C)C)c2c1)c1cn(C2(C(F)(F)F)CC2)nn1 [Example 432, (S)-8-chloro-6-(((6-fluoro-2-methyl-pyridin-3-yl)(1-(1-(trifluoromethyl)-cyclopropyl)-1H-1,2,3-triazol-4-yl)methyl)amino)-4-(neopentylamino)-quinoline-3-carbonitrile] | 89 | 6 | – | – |
| CC(C)(C)CNc1c(C#N)cnc2c(C#N)cc(N[C@H](c3cn(C4(C)CC4)nn3)c3cccc4ncsc34)cc12 [Example 435, (S)-6-((benzo[d]thiazol-7-yl(1-(1-methylcyclopropyl)-1H-1,2,3-triazol-4-yl)methyl)amino)-4-(neopentylamino)-quinoline-3,8-dicarbonitrile] | 24 | 1 | – | – |
| CC(C)(C)CNc1c(C#N)cnc2c(Cl)cc(N[C@H](c3cn(C4CC4)nn3)c3ccc(F)nc3Cl)cc12 [Example 436, (S)-8-chloro-6-(((2-chloro-6-fluoro-pyridin-3-yl)(1-cyclopropyl-1H-1,2,3-triazol-4-yl)methyl)amino)-4-(neo-pentylamino)quinoline-3-carbonitrile] | 289 | 5 | – | – |
| CC(C)(C)CNc1c(C#N)cnc2c(Cl)cc(N[C@H](c3cn(C4CC4)nn3)c3cccc4ncccc34)cc12 [Example 437, (S)-8-chloro-6-(((1-cyclopropyl-1H-1,2,3-triazol-4-yl)(quinolin-5-yl)methyl)amino)-4-(neopentylamino)quinoline-3-carbonitrile] | 82 | 2 | – | – |
| CC(C)(C)CNc1c(C#N)cnc2c(S(C)(=O)=O)cc(N[C@H](c3cn(C4(C(F)(F)F)CC4)nn3)c3cccc4ncsc34)cc12 [Example 442, (S)-6-((benzo[d]thiazol-7-yl(1-(1-(trifluoromethyl)cyclopropyl)-1H-1,2,3-triazol-4-yl)methyl)amino)-8-(methyl-sulfonyl)-4-(neopentylamino)quinoline-3-carbonitrile] | 2690 | 56 | – | – |
| CC(C)(C)CNc1c(C#N)cnc2c(Cl)cc(N[C@H](c3cn(C4CC4)nn3)c3cccc4cnccc34)cc12 [Example 443, (S)-8-chloro-6-(((1-cyclopropyl-1H-1,2,3-triazol-4-yl)(isoquinolin-5-yl)methyl)amino)-4-(neopentylamino)quinoline-3-carbonitrile] | 19 | 1 | – | – |
| CC(C)(C)CNc1c(C#N)cnc2c(C#N)cc(N[C@H](c3cn(C4(C(F)F)CC4)nn3)c3cccn4nccc34)cc12 [Example 444] | – | – | 33 | 2 |

Results, then the compound that gave them:

| EC50 [1, 3] [nM] | IC50 ([2]; IC50 HTRF) [nM] | EC50 ([1]; read-out: EC50 TNF, LPS-stimulated human monocytes, TNFα) [nM] | IC50 ([2]; read-out: IC50 HTRF) [nM] | Structure (SMILES) |
| --- | --- | --- | --- | --- |
| 25 | 2 | – | – | CC(C)(C)CNc1c(C#N)cnc2c(C#N)cc(N[C@H](c3cn(C4CCN(C(C)(C)C)CC4)nn3)c3cccc4ncsc34)cc12 [Example 420, (S)-6-((benzo[d]thiazol-7-yl(1-(1-(tert-butyl)piperidin-4-yl)-1H-1,2,3-triazol-4-yl)methyl)amino)-4-(neopentyl-amino)quinoline-3,8-dicarbonitrile] |
| 95 | 2 | – | – | Cn1cc2c([C@H](Nc3cc(Cl)c4ncc(C#N)c(NCC(C)(C)C)c4c3)c3cn(C4CC4)nn3)cccc2n1 [Example 426, (S)-8-chloro-6-(((1-cyclopropyl-1H-1,2,3-triazol-4-yl)(2-methyl-2H-indazol-4-yl)methyl)amino)-4-(neopentylamino)-quinoline-3-carbonitrile] |
| 214 | 5 | – | – | Cc1nc2cccc([C@H](Nc3cc(C#N)c4ncc(C#N)c(NCC(C)(C)C)c4c3)c3cn(C4(C(F)(F)F)CC4)nn3)c2s1 [Example 430, (S)-6-(((2-methylbenzo[d]thiazol-7-yl)(1-(1-(trifluoromethyl)cyclopropyl)-1H-1,2,3-triazol-4-yl)methyl)amino)-4-(neopentylamino)quinoline-3,8-dicarbonitrile] |
| 65 | 1 | – | – | CC(C)(C)CNc1c(C#N)cnc2c(C#N)cc(N[C@H](c3cn(C4CC4)nn3)c3csc4c3CCN(C3COC3)C4)cc12 [Example 433, (S)-6-(((1-cyclopropyl-1H-1,2,3-triazol-4-yl)(6-(oxetan-3-yl)-4,5,6,7-tetrahydrothieno[2,3-c]pyridin-3-yl)methyl)amino)-4-(neopentylamino)-quinoline-3,8-dicarbonitrile] |
| 1000 | 473 | – | – | Cc1nc(F)ccc1[C@@H](Nc1cc(Cl)c2ncc(C#N)c(N[C@H](CCC#N)c3ccccc3)c2c1)c1cn(C2CC2)nn1 [Example 438, 8-chloro-4-(((R)-3-cyano-1-phenyl-propyl)amino)-6-(((R)-(1-cyclopropyl-1H-1,2,3-triazol-4-yl)(6-fluoro-2-methylpyridin-3-yl)methyl)amino)-quinoline-3-carbonitrile] |
| 171 | 7 | – | – | CC[C@@H](Nc1c(C#N)cnc2c(Cl)cc(N[C@H](c3cn(C4(C(F)(F)F)CC4)nn3)c3ccc(F)nc3C)cc12)c1ccccc1 [Example 440, 8-chloro-6-(((S)-(6-fluoro-2-methyl-pyridin-3-yl)(1-(1-(trifluoromethyl)-cyclopropyl)-1H-1,2,3-triazol-4-yl)methyl)amino)-4-(((R)-1-phenyl-propyl)amino)quinoline-3-carbonitrile] |
| 156 | 3 | – | – | CC(C)(C)CNc1c(C#N)cnc2c(Cl)cc(N[C@H](c3cn(C4CC4)nn3)c3cccn4cncc34)cc12 [Example 446, (S)-8-chloro-6-(((1-cyclopropyl-1H-1,2,3-triazol-4-yl)(imidazo[1,5-a]pyridin-8-yl)methyl)amino)-4-(neopentylamino)-quinoline-3-carbonitrile] |
